Measurements reported in patent US20260022142A1, “MACROCYCLIC IMMUNOMODULATORS” (Bristol-Myers Squibb Company, priority 2022, published 2026).
Bridge positions count the residues as written; N and C are the ends. Square brackets hold non-standard residues; d marks the D form. Peptide text beside a SMILES is read from it. * marks the point of attachment. ξ: configuration not given here. Phe(3-CF3) = N[C@@H](Cc1cccc(C(F)(F)F)c1)C(=O)O; Ala(morpholin-4-yl) = N[C@@H](CN1CCOCC1)C(=O)O; Phe(4-COOH) = N[C@@H](Cc1ccc(C(=O)O)cc1)C(=O)O; Bip = N[C@@H](Cc1ccc(-c2ccccc2)cc1)C(=O)O; NH(CH2)14COOH = O=C(O)CCCCCCCCCCCCCCN*; Phe(3-Me) = Cc1cccc(C[C@H](N)C(=O)O)c1; NH(CH2)12COOH = O=C(O)CCCCCCCCCCCCN*; Val(3-OH) = CC(C)(O)[C@H](N)C(=O)O; Cha = N[C@@H](CC1CCCCC1)C(=O)O; Thr(3ξ) = CC(O)[C@H](N)C(=O)O; dDab = NCC[C@@H](N)C(=O)O; Carboxymethyl = O=C(O)C*; Nle = CCCC[C@H](N)C(=O)O; Orn = NCCC[C@H](N)C(=O)O; Dab = NCC[C@H](N)C(=O)O; AEEA = NCCOCCOCC(=O)O

Target: T1, PD-1/PD-L1 interaction (PE-labeled human PD-L1-Ig binding to Jurkat cell line over-expressing human PD-1) (Homo sapiens, UniProt Q15116)
T1 construct: expressed in transfected cells; host or cells: Jurkat
T1 sequence (Q15116 25-288): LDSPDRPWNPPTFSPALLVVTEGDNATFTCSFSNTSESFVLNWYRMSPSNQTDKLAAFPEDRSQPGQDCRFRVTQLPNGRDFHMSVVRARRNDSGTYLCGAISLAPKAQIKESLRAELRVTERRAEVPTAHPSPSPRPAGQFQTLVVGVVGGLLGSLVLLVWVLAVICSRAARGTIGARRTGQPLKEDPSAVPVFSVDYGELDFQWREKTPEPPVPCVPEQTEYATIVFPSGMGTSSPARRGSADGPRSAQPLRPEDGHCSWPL
Assay: Jurkat-PD-1 Cell Binding High-Content Screening Assay (CBA)
Assay type: cell-based
Conditions: Jurkat cell line over-expressing human PD-1; PE-labeled PD-L1-Ig 20 nM final; read-out: Jurkat hPD1-PDL1 IC50
Procedure, shortened: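 Jurkat-hPD-1 cells, DMEM/10% FCS; cpd 2 h 37° C; PE-PD-L1-Ig 20 nM final, 1 h; 4% PFA fix + Hoechst 33342, 3× dPBS wash; high-content imaging read-out.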

| IC50 | Compound |
| --- | --- |
| 216 nM | CC(C)C[C@H]1NC(=O)[C@H](CCCN)NC(=O)[C@H](Cc2ccc(C(=O)O)cc2)NC(=O)[C@H](Cc2ccc(-c3ccccc3)cc2)NC(=O)[C@H](Cc2ccc(C(=O)O)cc2)NC(=O)[C@H](Cc2cccc(C(F)(F)F)c2)NC(=O)[C@H](CC(=O)O)NC(=O)[C@H](Cc2ccc(OCC(=O)O)cc2)NC(=O)[C@H](CN2CCOCC2)NC(=O)CSC[C@@H](C(=O)N[C@H](CCN)C(=O)NCCOCCOCC(=O)NCCOCCOCC(=O)NCCCCCCCCCCCCC(=O)O)NC(=O)[C@H](CO)NC(=O)[C@H](C(C)(C)O)NC(=O)[C@H](CC2CCCCC2)NC(=O)[C@H](CCN)NC1=O [Compound 3828] ({CH2CO}-[Ala(morpholin-4-yl)]Y(Carboxymethyl)D[Phe(3-CF3)][Phe(4-COOH)][Bip][Phe(4-COOH)][Orn][dL][Dab][Cha][Val(3-OH)]SC[dDab][AEEA][AEEA]-{NH(CH2)12COOH}; thioether N-14) |
| 19.2 nM | CCCC[C@@H]1NC(=O)CSC[C@@H](C(=O)N[C@@H](CCN)C(=O)NCCOCCOCC(=O)NCCOCCOCC(=O)NCCCCCCCCCCCCC(=O)O)NC(=O)[C@H](CO)NC(=O)[C@H](C(C)(C)O)NC(=O)[C@H](CC2CCCCC2)NC(=O)[C@H](CCN)NC(=O)[C@@H](CC(C)C)NC(=O)[C@H](CCCN)NC(=O)[C@H](Cc2ccc(OCC(=O)O)cc2)NC(=O)[C@H](Cc2ccc(-c3ccccc3)cc2)NC(=O)[C@H](Cc2ccc(OCC(=O)O)cc2)NC(=O)[C@H](Cc2cccc(C(F)(F)F)c2)NC(=O)[C@H](CC(=O)O)NC(=O)[C@H](Cc2ccc(OCC(=O)O)cc2)NC1=O [Compound 3829] ({CH2CO}-[Nle]Y(Carboxymethyl)D[Phe(3-CF3)]Y(Carboxymethyl)[Bip]Y(Carboxymethyl)[Orn][dL][Dab][Cha][Val(3-OH)]SC[Dab][AEEA][AEEA]-{NH(CH2)12COOH}; thioether N-14) |
| 22.5 nM | CC(C)C[C@H]1NC(=O)[C@H](CCCN)NC(=O)[C@H](Cc2ccc(C(=O)O)cc2)NC(=O)[C@H](Cc2ccc(-c3ccccc3)cc2)NC(=O)[C@H](Cc2ccc(C(=O)O)cc2)NC(=O)[C@H](Cc2cccc(C(F)(F)F)c2)NC(=O)[C@H](CC(=O)O)NC(=O)[C@H](Cc2ccc(OCC(=O)O)cc2)NC(=O)[C@H](CC2CCCCC2)NC(=O)CSC[C@@H](C(=O)N[C@H](CCN)C(=O)NCCOCCOCC(=O)NCCOCCOCC(=O)NCCCCCCCCCCCCC(=O)O)NC(=O)[C@H](CO)NC(=O)[C@H](C(C)(C)O)NC(=O)[C@H](CC2CCCCC2)NC(=O)[C@H](CCN)NC1=O [Compound 3831] ({CH2CO}-[Cha]Y(Carboxymethyl)D[Phe(3-CF3)][Phe(4-COOH)][Bip][Phe(4-COOH)][Orn][dL][Dab][Cha][Val(3-OH)]SC[dDab][AEEA][AEEA]-{NH(CH2)12COOH}; thioether N-14) |
| 28.3 nM | CC(C)C[C@@H]1NC(=O)CSC[C@@H](C(=O)N[C@@H](CCN)C(=O)NCCCCCCCCCCCCC(=O)O)NC(=O)[C@H](CO)NC(=O)[C@H](C(C)(C)O)NC(=O)[C@H](CC2CCCCC2)NC(=O)[C@H](CCN)NC(=O)[C@@H](CC(C)C)NC(=O)[C@H](CCCN)NC(=O)[C@H](Cc2ccc(OCC(=O)O)cc2)NC(=O)[C@H](Cc2ccc(-c3ccccc3)cc2)NC(=O)[C@H](Cc2ccc(OCC(=O)O)cc2)NC(=O)[C@H](Cc2cccc(C(F)(F)F)c2)NC(=O)[C@H](CC(=O)O)NC(=O)[C@H](Cc2ccc(OCC(=O)O)cc2)NC1=O [Compound 3835] ({CH2CO}-LY(Carboxymethyl)D[Phe(3-CF3)]Y(Carboxymethyl)[Bip]Y(Carboxymethyl)[Orn][dL][Dab][Cha][Val(3-OH)]SC[Dab]-{NH(CH2)12COOH}; thioether N-14) |
| 178 nM | CC(C)C[C@H]1NC(=O)[C@H](CCCN)NC(=O)[C@H](Cc2ccc(C(=O)O)cc2)NC(=O)[C@H](Cc2ccc(-c3ccccc3)cc2)NC(=O)[C@H](Cc2ccc(C(=O)O)cc2)NC(=O)[C@H](Cc2cccc(C(F)(F)F)c2)NC(=O)[C@H](CC(=O)O)NC(=O)[C@H](Cc2ccc(OCC(=O)O)cc2)NC(=O)[C@H](Cc2ccc(OCC(=O)O)cc2)NC(=O)CSC[C@@H](C(=O)N[C@@H](CCN)C(=O)NCCOCCOCC(=O)NCCOCCOCC(=O)NCCCCCCCCCCCCCCC(=O)O)NC(=O)[C@H](CO)NC(=O)[C@H](C(C)(C)O)NC(=O)[C@H](CC2CCCCC2)NC(=O)[C@H](CCN)NC1=O [Compound 3839] ({CH2CO}-Y(Carboxymethyl)Y(Carboxymethyl)D[Phe(3-CF3)][Phe(4-COOH)][Bip][Phe(4-COOH)][Orn][dL][Dab][Cha][Val(3-OH)]SC[Dab][AEEA][AEEA]-{NH(CH2)14COOH}; thioether N-14) |
| 40.7 nM | Cc1cccc(C[C@@H]2NC(=O)[C@H](CC(=O)O)NC(=O)[C@H](Cc3ccc(OCC(=O)O)cc3)NC(=O)[C@H](C(C)O)NC(=O)CSC[C@@H](C(=O)N[C@@H](CCN)C(=O)NCCOCCOCC(=O)NCCCCCCCCCCCCC(=O)O)NC(=O)[C@H](CC(=O)O)NC(=O)[C@H](C(C)C)NC(=O)[C@H](CC3CCCCC3)NC(=O)[C@H](CCN)NC(=O)[C@@H](CC(C)C)NC(=O)[C@H](CCCN)NC(=O)[C@H](Cc3ccc(C(=O)O)cc3)NC(=O)[C@H](Cc3ccc(-c4ccccc4)cc3)NC(=O)[C@H](Cc3ccc(C(=O)O)cc3)NC2=O)c1 (stereo partly drawn) [Compound 3843] ({CH2CO}-[Thr(3ξ)]Y(Carboxymethyl)D[Phe(3-Me)][Phe(4-COOH)][Bip][Phe(4-COOH)][Orn][dL][Dab][Cha]VDC[Dab][AEEA]-{NH(CH2)12COOH}; thioether N-14) |

Second part, the compound before the results:

| Compound | IC50 |
| --- | --- |
| CC(C)C[C@H]1NC(=O)[C@H](CCCN)NC(=O)[C@H](Cc2ccc(C(=O)O)cc2)NC(=O)[C@H](Cc2ccc(-c3ccccc3)cc2)NC(=O)[C@H](Cc2ccc(C(=O)O)cc2)NC(=O)[C@H](Cc2cccc(C(F)(F)F)c2)NC(=O)[C@H](CC(=O)O)NC(=O)[C@H](Cc2ccc(OCC(=O)O)cc2)NC(=O)[C@H](CC2CCCCC2)NC(=O)CSC[C@@H](C(=O)N[C@@H](CCN)C(=O)NCCOCCOCC(=O)NCCOCCOCC(=O)NCCCCCCCCCCCCCCC(=O)O)NC(=O)[C@H](CO)NC(=O)[C@H](C(C)(C)O)NC(=O)[C@H](CC2CCCCC2)NC(=O)[C@H](CCN)NC1=O [Compound 3830] ({CH2CO}-[Cha]Y(Carboxymethyl)D[Phe(3-CF3)][Phe(4-COOH)][Bip][Phe(4-COOH)][Orn][dL][Dab][Cha][Val(3-OH)]SC[Dab][AEEA][AEEA]-{NH(CH2)14COOH}; thioether N-14) | 200 nM |
| CC(C)C[C@H]1NC(=O)[C@H](CCCN)NC(=O)[C@H](Cc2ccc(OCC(=O)O)cc2)NC(=O)[C@H](Cc2ccc(-c3ccccc3)cc2)NC(=O)[C@H](Cc2ccc(OCC(=O)O)cc2)NC(=O)[C@H](Cc2cccc(C(F)(F)F)c2)NC(=O)[C@H](CC(=O)O)NC(=O)[C@H](Cc2ccc(OCC(=O)O)cc2)NC(=O)[C@H](Cc2cnc[nH]2)NC(=O)CSC[C@@H](C(=O)N[C@@H](CCN)C(=O)NCCCCCCCCCCCCC(=O)O)NC(=O)[C@H](CO)NC(=O)[C@H](C(C)(C)O)NC(=O)[C@H](CC2CCCCC2)NC(=O)[C@H](CCN)NC1=O [Compound 3836] ({CH2CO}-HY(Carboxymethyl)D[Phe(3-CF3)]Y(Carboxymethyl)[Bip]Y(Carboxymethyl)[Orn][dL][Dab][Cha][Val(3-OH)]SC[Dab]-{NH(CH2)12COOH}; thioether N-14) | 45.6 nM |
| CC(C)C[C@H]1NC(=O)[C@H](Cc2cnc[nH]2)NC(=O)[C@H](Cc2ccc(C(=O)O)cc2)NC(=O)[C@H](Cc2ccc(-c3ccccc3)cc2)NC(=O)[C@H](Cc2ccc(C(=O)O)cc2)NC(=O)[C@H](Cc2cccc(C(F)(F)F)c2)NC(=O)[C@H](CC(=O)O)NC(=O)[C@H](Cc2ccc(OCC(=O)O)cc2)NC(=O)[C@H](Cc2ccc(OCC(=O)O)cc2)NC(=O)CSC[C@@H](C(=O)N[C@@H](CCN)C(=O)NCCOCCOCC(=O)NCCOCCOCC(=O)NCCCCCCCCCCCCCCC(=O)O)NC(=O)[C@H](CO)NC(=O)[C@H](C(C)(C)O)NC(=O)[C@H](CC2CCCCC2)NC(=O)[C@H](CCN)NC1=O [Compound 3840] ({CH2CO}-Y(Carboxymethyl)Y(Carboxymethyl)D[Phe(3-CF3)][Phe(4-COOH)][Bip][Phe(4-COOH)]H[dL][Dab][Cha][Val(3-OH)]SC[Dab][AEEA][AEEA]-{NH(CH2)14COOH}; thioether N-14) | 340 nM |
| CCCC[C@@H]1NC(=O)CSC[C@@H](C(=O)N[C@@H](CCN)C(=O)NCCOCCOCC(=O)NCCCCCCCCCCCCC(=O)O)NC(=O)[C@H](CO)NC(=O)[C@H](C(C)(C)O)NC(=O)[C@H](CC2CCCCC2)NC(=O)[C@H](CCN)NC(=O)[C@@H](CC(C)C)NC(=O)[C@H](CCCN)NC(=O)[C@H](Cc2ccc(C(=O)O)cc2)NC(=O)[C@H](Cc2ccc(-c3ccccc3)cc2)NC(=O)[C@H](Cc2ccc(C(=O)O)cc2)NC(=O)[C@H](Cc2cccc(C)c2)NC(=O)[C@H](CC(=O)O)NC(=O)[C@H](Cc2ccc(OCC(=O)O)cc2)NC1=O [Compound 3841] ({CH2CO}-[Nle]Y(Carboxymethyl)D[Phe(3-Me)][Phe(4-COOH)][Bip][Phe(4-COOH)][Orn][dL][Dab][Cha][Val(3-OH)]SC[Dab][AEEA]-{NH(CH2)12COOH}; thioether N-14) | 34.1 nM |
| Cc1cccc(C[C@@H]2NC(=O)[C@H](CC(=O)O)NC(=O)[C@H](Cc3ccc(OCC(=O)O)cc3)NC(=O)[C@H](Cc3ccc(OCC(=O)O)cc3)NC(=O)CSC[C@@H](C(=O)N[C@@H](CCN)C(=O)NCCOCCOCC(=O)NCCCCCCCCCCCCC(=O)O)NC(=O)[C@H](CO)NC(=O)[C@H](C(C)(C)O)NC(=O)[C@H](CC3CCCCC3)NC(=O)[C@H](CCN)NC(=O)[C@@H](CC(C)C)NC(=O)[C@H](CCCN)NC(=O)[C@H](Cc3ccc(C(=O)O)cc3)NC(=O)[C@H](Cc3ccc(-c4ccccc4)cc3)NC(=O)[C@H](Cc3ccc(C(=O)O)cc3)NC2=O)c1 [Compound 3842] ({CH2CO}-Y(Carboxymethyl)Y(Carboxymethyl)D[Phe(3-Me)][Phe(4-COOH)][Bip][Phe(4-COOH)][Orn][dL][Dab][Cha][Val(3-OH)]SC[Dab][AEEA]-{NH(CH2)12COOH}; thioether N-14) | 16.1 nM |
